Results: patent US20140066367A1, “SUBCUTANEOUS DELIVERY OF A LONG-ACTING NATRIURETIC PEPTIDE” (Mayo Foundation for Medical Education and Research, priority 2012, published 2014)

What was measured:
[1] = Plasma ANP immunoreactivity and pharmacokinetics after subcutaneous administration to conscious canines; type: in vivo, canine
Description: (§1) Studies were performed in accordance with the Animal Welfare Act and with approval of the Mayo Clinic Institutional Animal Care and Use Committee. A randomized crossover study was designed in which equimolar (2.225 nmol/kg) SQ M-ANP and SQ ANP were administered to conscious healthy adult canines (n=5) at 2-week intervals. Vehicle (SQ 0.9% normal saline) was administered to 3 canines serving as a control group. At least 7 days prior to the above studies, an arterial port was placed in the femoral artery as previously described (Cataliotti et al. (2008) Circulation, 118:1729-1736). After recovery from arterial port placement, canines were fed a fixed sodium diet of 100 mEq/d with ad libitum access to water for 5 days before initiation of studies. During this time, canines were acclimatized to standing calm in a sling. On the day of the experiment, the dogs were fasted and placed in a sling in a quiet room. Thirty minutes before the beginning of the experiment, the femoral artery port was accessed for continuous BP and heart rate assessment (iWorx, Dover, N.H.). After 30 minutes of acclimatization, the study protocol was started. Subcutaneous M-ANP, ANP or vehicle was administered at time 0 minutes. At time −15, 0, 5, 10, 15, 30, 45, 60, 75, 90, 120, 150, 180, 210, 240, 270, and 300 minutes, mean arterial pressure (MAP) and heart rate samples were obtained over a period of 1 minute. […]
(§2) Blood samples were collected in chilled EDTA tubes, immediately placed on ice, and centrifuged at 4° C. […] After extraction, plasma ANP immunoreactivity (Phoenix Pharmaceuticals, Burlingame, Calif.) was assessed by radioimmunoassay as previously described (Burnett et al. (1986) Science, 231:1145-1147). […] Plasma cGMP (PerkinElmer, Waltham, Mass.) was assessed by radioimmunoassay (Steiner et al., supra).
(§3) Pharmacokinetic profile of M-ANP compared to ANP was determined using PK Solutions software (Summit PK, Montrose, Colo.). Specific parameters that were determined included plasma half-life, maximum concentration (Cmax) and area under the curve (AUC).

cGMP = assay: Plasma cGMP after subcutaneous administration to conscious canines; type: in vivo, canine
Description: as §1, §2, §3

[2] = infusion of a low dose, normal dogs; cited from earlier work
[3] = Mean arterial pressure and heart rate after subcutaneous administration to conscious canines; type: in vivo, canine; details: SQ
Description: as §1

[4] = plasma cGMP, subcutaneous, equimolar 2.225 nmol/kg, conscious canines

In the case of `CC[C@H](C)[C@@H]1NC(=O)[C@H](CCCNC(=N)N)NC(=O)[C@H](CC(=O)O)NC(=O)[C@H](CCSC)NC(=O)[C@H](CCCNC(=N)N)NC(=O)CNC(=O)CNC(=O)[C@H](Cc2ccccc2)NC(=O)[C@@H](NC(=O)[C@H](CO)NC(=O)[C@H](CO)NC(=O)[C@H](CCCNC(=N)N)NC(=O)[C@H](CCCNC(=N)N)NC(=O)[C@H](CC(C)C)NC(=O)[C@@H](N)CO)CSSC[C@@H](C(=O)N[C@@H](CC(N)=O)C(=O)N[C@@H](CO)C(=O)N[C@@H](Cc2ccccc2)C(=O)N[C@@H](CCCNC(=N)N)C(=O)N[C@@H](Cc2ccc(O)cc2)C(=O)O)NC(=O)CNC(=O)[C@H](CC(C)C)NC(=O)CNC(=O)[C@H](CO)NC(=O)[C@H](CCC(N)=O)NC(=O)[C@H](C)NC(=O)CNC1=O` [ANP], the “time ANP immunoreactivity remained significantly elevated” value ([1]; SQ, canines) is reported as 45 min, the “time of peak ANP immunoreactivity after administration” value ([1]; SQ, canines) is reported as 15 min and the “ANPi AUC” value ([1]; subcutaneous, equimolar 2.225 nmol/kg, conscious canines) is reported as 10.8 ± 2.4 pmol·min/mL. For the same compound, the “duration of sustained cGMP activation” value (cGMP; SQ, canines) was 60 min, the “cGMP AUC” value (cGMP; [4]) was 676 ± 211 pmol·min/mL and the “cGMP Cmax” value (cGMP; [4]) was 14.7 ± 1.9 pmol/mL. For the same compound, the “change in glomerular filtration rate (GFR) or MAP” value [2] was “No change” and the “effect on MAP” value [3] was “no significant reduction in MAP”.
